From PubChem BioAssay AID330 (DTP/NCI, 2004)
Values joined by “and” are separate entries in the source; they are usually repeats but may differ in a detail not shown here. Equal entries are not always repeated. Inconclusive results and toxic doses are left out.

Test system: P388 leukemia ip, CD2F1 mice, survival T/C
Test: NCI In Vivo Anticancer Drug Screen. Data for tumor model P388 Leukemia (intraperitoneal) in CD2F1 (CDF1) mice
Settings: endpoint: median survival time, higher = longer survival
Outline: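 Mice carrying the transplanted tumor received test compound or vehicle. Survival was recorded in each group, and the value is the treated-group measurement divided by that of the vehicle-treated control group.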

[1] = dose: 50.0 mg/kg/injection, schedule: Q01DX005 (ip), vehicle: saline with Tween-80
[2] = dose: 50.0 mg/kg/injection, schedule: Q01DX009 (ip), vehicle: saline with Tween-80
[3] = dose: 50.0 mg/kg/injection, schedule: Q01DX009 (ip), vehicle: Klucel (hydroxypropylcellulose) (HPC)
[4] = dose: 100.0 mg/kg/injection, schedule: Q01DX009 (ip), vehicle: Klucel (hydroxypropylcellulose) (HPC)
[5] = dose: 200.0 mg/kg/injection, schedule: Q01DX009 (ip), vehicle: Klucel (hydroxypropylcellulose) (HPC)
[6] = dose: 100.0 mg/kg/injection, schedule: Q01DX005 (ip), vehicle: saline with Tween-80
[7] = dose: 200.0 mg/kg/injection, schedule: Q01DX005 (ip), vehicle: saline with Tween-80
[8] = dose: 100.0 mg/kg/injection, schedule: Q01DX005 (ip), vehicle: Klucel (hydroxypropylcellulose) (HPC)
[9] = dose: 100.0 mg/kg/injection, schedule: Q04DX003 (ip), vehicle: saline with Tween-80
[10] = dose: 200.0 mg/kg/injection, schedule: Q04DX003 (ip), vehicle: saline with Tween-80
[11] = dose: 400.0 mg/kg/injection, schedule: Q04DX003 (ip), vehicle: saline with Tween-80
[12] = dose: 50.0 mg/kg/injection, schedule: Q01DX005 (ip), vehicle: Klucel (hydroxypropylcellulose) (HPC)
[13] = dose: 200.0 mg/kg/injection, schedule: Q01DX005 (ip), vehicle: Klucel (hydroxypropylcellulose) (HPC)
[14] = dose: 60.0 mg/kg/injection, schedule: Q01DX005 (ip), vehicle: saline
[15] = dose: 120.0 mg/kg/injection, schedule: Q01DX005 (ip), vehicle: saline
[16] = dose: 240.0 mg/kg/injection, schedule: Q01DX005 (ip), vehicle: saline
[17] = dose: 100.0 mg/kg/injection, schedule: Q01DX009 (ip), vehicle: saline with Tween-80
[18] = dose: 50.0 mg/kg/injection, schedule: Q04DX003 (ip), vehicle: saline with Tween-80
[19] = dose: 200.0 mg/kg/injection, schedule: Q01DX009 (ip), vehicle: saline with Tween-80
[20] = dose: 400.0 mg/kg/injection, schedule: Q01DX009 (ip), vehicle: saline with Tween-80

COC(=O)CC1(C(=O)OC)c2sc(-c3ccccc3)c(-c3ccccc3)c2N2CCCC21 (centres undefined)
T/C (dose: 11.25 mg/kg/injection, schedule: Q01DX009 (ip), vehicle: Klucel (hydroxypropylcellulose) (HPC)): 97 % of control
T/C (dose: 22.5 mg/kg/injection, schedule: Q01DX009 (ip), vehicle: Klucel (hydroxypropylcellulose) (HPC)): 97 % of control
T/C (dose: 45.0 mg/kg/injection, schedule: Q01DX009 (ip), vehicle: Klucel (hydroxypropylcellulose) (HPC)): 97 % of control

CN(C)CC(O)c1ccc2cc(Br)c3ccccc3c2c1 (centres undefined)
T/C (dose: 12.5 mg/kg/injection, schedule: Q01DX005 (ip), vehicle: saline with Tween-80): 97 % of control
T/C (dose: 25.0 mg/kg/injection, schedule: Q01DX005 (ip), vehicle: saline with Tween-80): 106 % of control
T/C [1]: 100 % of control and 97 % of control

COc1cc(O)cc2c1CCC(c1ccccc1)O2 (centres undefined)
T/C (dose: 1.8 mg/kg/injection, schedule: Q01DX005 (ip), vehicle: Klucel + Tween-80): 107 % of control
T/C (dose: 3.5 mg/kg/injection, schedule: Q01DX005 (ip), vehicle: Klucel + Tween-80): 107 % of control
T/C (dose: 7.0 mg/kg/injection, schedule: Q01DX005 (ip), vehicle: Klucel + Tween-80): 97 % of control
T/C (dose: 14.0 mg/kg/injection, schedule: Q01DX005 (ip), vehicle: Klucel + Tween-80): 100 % of control

CC1C(=O)OC(C)(C)C1(C)C (centres undefined)
T/C [2]: 101 % of control

O=C(Nc1ccccc1Cl)OCC(CCl)(CCl)CCl
T/C [3]: 100 % of control
T/C [4]: 106 % of control
T/C [5]: 95 % of control

COc1ccc(/C=N/N2CN(C(CC(N)=O)C(=O)O)P(Nc3ncccn3)N=C2N)cc1OC (centres undefined)
T/C (dose: 60.0 mg/kg/injection, schedule: Q01DX005 (ip), vehicle: saline with Tween-80): 104 % of control
T/C (dose: 120.0 mg/kg/injection, schedule: Q01DX005 (ip), vehicle: saline with Tween-80): 102 % of control
T/C (dose: 240.0 mg/kg/injection, schedule: Q01DX005 (ip), vehicle: saline with Tween-80): 95 % of control

Cn1c(-c2ccccc2)c2c(c1-c1ccccc1)C(=O)c1c(c(-c3ccccc3)n(C)c1-c1ccccc1)C2=O
T/C [3]: 94 % of control
T/C [4]: 92 % of control
T/C [5]: 97 % of control

COc1ccc(/C=C/c2nnc(N)o2)cc1
T/C [1]: 100 % of control
T/C [6]: 101 % of control
T/C [7]: 105 % of control

CC1CN=C(CCc2ccc(NC(=O)c3ccc(C(=O)Nc4ccc(CCC5=NCC(C)N5)cc4)cc3)cc2)N1 (centres undefined)
T/C (dose: 12.5 mg/kg/injection, schedule: Q01DX005 (ip), vehicle: Klucel (hydroxypropylcellulose) (HPC)): 108 % of control
T/C (dose: 25.0 mg/kg/injection, schedule: Q01DX005 (ip), vehicle: Klucel (hydroxypropylcellulose) (HPC)): 108 % of control
T/C [8]: 160 % of control

CC(=O)NC(Cc1cnc[nH]1)C(=O)O (centres undefined)
T/C [9]: 98 % of control
T/C [10]: 99 % of control
T/C [11]: 100 % of control

O=C(NC(c1ccccc1)c1cccs1)c1cccs1 (centres undefined)
T/C [12]: 99 % of control
T/C [8]: 99 % of control
T/C [13]: 103 % of control

CCCNC(=O)OCCN(CCOC(=O)NCCC)CCc1cccc(OC)c1OC
T/C [14]: 101 % of control
T/C [15]: 105 % of control
T/C [16]: 100 % of control

O=C(O)c1cscn1
T/C [14]: 100 % of control
T/C [15]: 97 % of control
T/C [16]: 113 % of control

CCCCCC(CN(C)C)C(=O)/C=C/c1ccc2c(c1)OCO2 (centres undefined)
T/C [2]: 123 % of control
T/C [17]: 109 % of control

O=c1[nH]c(=O)n(C2CC(O)C(CO)O2)cc1O (centres undefined)
T/C [18]: 100 % of control
T/C [9]: 101 % of control
T/C [10]: 99 % of control
T/C [11]: 101 % of control

CCN(CC)C1C2=C(CCCC2)OS(=O)(=O)C1c1ccccc1 (centres undefined)
T/C (dose: 60.0 mg/kg/injection, schedule: Q01DX005 (ip), vehicle: Klucel (hydroxypropylcellulose) (HPC)): 103 % of control
T/C (dose: 120.0 mg/kg/injection, schedule: Q01DX005 (ip), vehicle: Klucel (hydroxypropylcellulose) (HPC)): 97 % of control
T/C (dose: 240.0 mg/kg/injection, schedule: Q01DX005 (ip), vehicle: Klucel (hydroxypropylcellulose) (HPC)): 95 % of control

S=c1oc(-c2ccc3c(c2)OCO3)nn1CN1CCN(Cn2nc(-c3ccc4c(c3)OCO4)oc2=S)CC1
T/C [12]: 96 % of control
T/C [8]: 96 % of control
T/C [13]: 93 % of control

CC1CCCCC1C(C)(C#N)Nc1ccccc1 (centres undefined)
T/C [17]: 109 % of control
T/C [19]: 113 % of control
T/C [20]: 118 % of control

C/C(=C/Cc1ccccc1)C(=O)O
T/C (dose: 100.0 mg/kg/injection, schedule: Q01DX001 (ip), vehicle: saline with Tween-80): 108 % of control
T/C (dose: 200.0 mg/kg/injection, schedule: Q01DX001 (ip), vehicle: saline with Tween-80): 108 % of control
T/C (dose: 400.0 mg/kg/injection, schedule: Q01DX001 (ip), vehicle: saline with Tween-80): 99 % of control

CC12CCC3C4CCC(=O)C(O)=C4CCC3C1CCC2OC(=O)CCC1CCCC1 (centres undefined)
T/C (dose: 50.0 mg/kg/injection, schedule: Q04DX003 (sc), vehicle: Klucel (hydroxypropylcellulose) (HPC)): 99 % of control
T/C (dose: 100.0 mg/kg/injection, schedule: Q04DX003 (sc), vehicle: Klucel (hydroxypropylcellulose) (HPC)): 118 % of control
T/C (dose: 200.0 mg/kg/injection, schedule: Q04DX003 (sc), vehicle: Klucel (hydroxypropylcellulose) (HPC)): 101 % of control

COc1cc2c(cc1C(C)c1ccccc1)OCO2 (centres undefined)
T/C [1]: 96 % of control
T/C [6]: 96 % of control
T/C [7]: 111 % of control

Cc1ccc(NS(=O)(=O)c2ccccc2)nc1
T/C (dose: 25.0 mg/kg/injection, schedule: Q01DX009 (ip), vehicle: saline with Tween-80): 110 % of control
T/C [2]: 100 % of control
T/C [17]: 100 % of control
T/C [19]: 95 % of control
T/C [20]: 105 % of control

CCOC(C[Se]c1ccccc1)OCC(F)(F)F (centres undefined)
T/C [18]: 90 % of control
T/C [9]: 102 % of control
T/C [10]: 111 % of control

O=C1C=CC2C3C(=O)N(c4ccccc4)C(=O)C3C1N2Cc1ccccc1 (centres undefined)
T/C [1]: 105 % of control and 110 % of control and 118 % of control
T/C [6]: 116 % of control and 117 % of control and 118 % of control
T/C [7]: 119 % of control and 120 % of control and 123 % of control
T/C (dose: 400.0 mg/kg/injection, schedule: Q01DX005 (ip), vehicle: saline with Tween-80): 113 % of control and 114 % of control
